Data: patent US11827628B2, “Compositions and methods for inhibition of the JAK pathway” (Rigel Pharmaceuticals, Inc., priority 2005, dated 2023)
Like-named read-outs stand apart in the source and are kept apart here.

System: up-regulation of ICAM-1 (CD54) by IFNγ in A549 lung epithelial cells
Experiment: A549 Epithelial Line Stimulated with IFNγ (ICAM-1 surface expression, FACS)
Type: cell-based, human
Details: ICAM-1 expression by FACS, read-out: IC50, Example 43
Summary of the method: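 A549 cells pre-incubated 1 h with compound (30 μM to 14 nM, 5% FBS, 0.3% DMSO), then stimulated with IFNγ (75 ng/mL) for 24 h. Surface ICAM-1 stained with APC anti-CD54 and read by flow cytometry; geometric mean of live-gated events plotted against concentration for EC50.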

[1] = Homo sapiens, A549, A549 epithelial line stimulated with IFNγ

IC50 [1] | IC50 (A549 cells stimulated with IFNγ) | SMILES
11.1 µM |  | Cc1cc(COc2ccc(Nc3nc(Nc4cccc(S(=O)(=O)NCc5oc(=O)oc5C)c4)ncc3F)cc2)no1 [Compound I-247, N2-{3-[(N-5-Methyl-1,3-dioxolene-2-one-4-yl)methylene]aminosulfonylphenyl}-5-fluoro-N4-[4-(5-methylisoxazol-3-yl)methyleneoxyphenyl]-2,4-pyrimidinediamine]
 | 5.9 µM | Cc1noc(CCc2ccc(Nc3nc(Nc4cccc(S(N)(=O)=O)c4)ncc3F)cc2)n1 [III-106, N2-(3-Aminosulfonylphenyl)-5-fluoro-N4-[4-(3-methyl-1,2,4-oxadiazol-5-yl)ethylenephenyl]-2,4-pyrimidinediamine]
6.64 µM |  | Cc1cc(Nc2nc(Nc3cccc(S(N)(=O)=O)c3)ncc2F)ccc1CCC#N [III-20, N2-(3-Aminosulfonylphenyl)-N4-[4-(2-cyanoethyl)-3-methylphenyl]-5-fluoro-2,4-pyrimidinediamine]
